Common to all, as to type: biochemical
Assay [1] concerns the target T1, CHSY3/CHPF (Homo sapiens, UniProt Q70JA7).
T1 construct: soluble lumenal regions, His6 tags, obligate heterodimer co-expressed in Expi293F
T1 sequence (Q70JA7 29-882 limits assumed): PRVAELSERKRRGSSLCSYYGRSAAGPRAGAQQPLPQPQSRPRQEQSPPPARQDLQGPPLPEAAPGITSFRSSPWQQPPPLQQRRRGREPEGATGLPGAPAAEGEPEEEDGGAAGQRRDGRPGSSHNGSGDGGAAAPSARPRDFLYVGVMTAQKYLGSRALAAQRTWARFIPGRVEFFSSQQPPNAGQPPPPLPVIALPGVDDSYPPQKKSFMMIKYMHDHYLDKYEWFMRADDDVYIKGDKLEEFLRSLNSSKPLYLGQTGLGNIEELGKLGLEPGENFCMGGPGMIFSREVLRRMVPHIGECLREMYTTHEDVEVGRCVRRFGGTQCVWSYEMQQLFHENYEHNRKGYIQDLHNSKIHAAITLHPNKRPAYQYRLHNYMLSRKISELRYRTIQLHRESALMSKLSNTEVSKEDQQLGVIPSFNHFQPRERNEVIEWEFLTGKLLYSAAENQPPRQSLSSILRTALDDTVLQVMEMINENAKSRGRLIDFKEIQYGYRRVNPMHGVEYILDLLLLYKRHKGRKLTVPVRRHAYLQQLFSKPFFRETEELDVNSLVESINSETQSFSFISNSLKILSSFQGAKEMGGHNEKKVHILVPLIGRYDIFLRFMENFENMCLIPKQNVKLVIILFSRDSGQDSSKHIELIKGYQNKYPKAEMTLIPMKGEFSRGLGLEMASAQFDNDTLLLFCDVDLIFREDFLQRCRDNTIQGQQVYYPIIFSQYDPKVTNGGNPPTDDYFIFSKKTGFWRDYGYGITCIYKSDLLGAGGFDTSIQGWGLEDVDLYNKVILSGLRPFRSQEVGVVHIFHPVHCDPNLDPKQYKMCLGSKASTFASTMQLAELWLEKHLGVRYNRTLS
T1 sequence (Q8IZ52 35-775 partner): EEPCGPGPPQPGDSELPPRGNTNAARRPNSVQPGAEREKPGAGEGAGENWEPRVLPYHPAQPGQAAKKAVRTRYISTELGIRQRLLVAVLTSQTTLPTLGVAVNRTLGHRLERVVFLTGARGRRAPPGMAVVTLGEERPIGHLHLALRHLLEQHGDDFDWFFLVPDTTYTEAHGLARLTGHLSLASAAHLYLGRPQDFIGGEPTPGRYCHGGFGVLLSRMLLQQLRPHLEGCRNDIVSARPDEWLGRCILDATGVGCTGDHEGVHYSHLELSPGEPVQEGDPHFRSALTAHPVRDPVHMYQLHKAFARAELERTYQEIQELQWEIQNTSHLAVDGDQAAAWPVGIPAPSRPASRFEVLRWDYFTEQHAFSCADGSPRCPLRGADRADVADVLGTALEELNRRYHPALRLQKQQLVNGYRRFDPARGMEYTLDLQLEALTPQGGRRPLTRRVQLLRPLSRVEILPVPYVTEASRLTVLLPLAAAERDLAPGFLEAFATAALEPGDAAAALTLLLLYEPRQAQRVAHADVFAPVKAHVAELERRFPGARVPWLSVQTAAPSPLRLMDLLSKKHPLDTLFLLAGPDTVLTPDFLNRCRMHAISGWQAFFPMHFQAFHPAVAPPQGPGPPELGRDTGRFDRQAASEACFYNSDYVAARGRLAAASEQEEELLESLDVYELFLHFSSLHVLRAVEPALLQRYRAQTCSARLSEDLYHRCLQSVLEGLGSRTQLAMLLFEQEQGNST
The assay is described as follows: HPLC and MS of glycopeptide product. The following applies: acceptor TetraP-BETA; 5 mM Mn2+; pH 7.5; 30 °C.

Assay [2] deals with T2, MBP-CSGALNACT1 (Homo sapiens, UniProt Q8TDX6).
T2 sequence (Q8TDX6 36-532 limits assumed): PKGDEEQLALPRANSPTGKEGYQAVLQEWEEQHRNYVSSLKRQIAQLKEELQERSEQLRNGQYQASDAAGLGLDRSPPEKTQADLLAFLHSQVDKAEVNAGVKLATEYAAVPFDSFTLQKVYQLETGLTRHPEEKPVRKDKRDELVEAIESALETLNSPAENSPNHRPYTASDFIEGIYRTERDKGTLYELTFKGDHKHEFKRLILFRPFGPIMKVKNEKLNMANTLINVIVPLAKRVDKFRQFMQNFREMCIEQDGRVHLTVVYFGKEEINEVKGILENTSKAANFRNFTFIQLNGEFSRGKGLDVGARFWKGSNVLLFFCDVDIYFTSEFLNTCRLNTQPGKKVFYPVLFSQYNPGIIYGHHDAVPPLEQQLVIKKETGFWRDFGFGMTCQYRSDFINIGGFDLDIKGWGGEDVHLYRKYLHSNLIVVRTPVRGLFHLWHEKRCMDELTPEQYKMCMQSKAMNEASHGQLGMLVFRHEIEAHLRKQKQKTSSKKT
The assay is described as follows: UDP-Glo. The following applies: acceptor TetraP-peptides; 5 mM Mn2+; pH 7.5.

Assay [3] addresses T3, EXT1/EXT2 (Homo sapiens, UniProt Q16394+Q93063).
T3 construct: soluble lumenal regions, FLAG-EXT1/His-EXT2 heterodimer co-expressed in Expi293F
T3 sequence (Q16394 29-746 limits assumed): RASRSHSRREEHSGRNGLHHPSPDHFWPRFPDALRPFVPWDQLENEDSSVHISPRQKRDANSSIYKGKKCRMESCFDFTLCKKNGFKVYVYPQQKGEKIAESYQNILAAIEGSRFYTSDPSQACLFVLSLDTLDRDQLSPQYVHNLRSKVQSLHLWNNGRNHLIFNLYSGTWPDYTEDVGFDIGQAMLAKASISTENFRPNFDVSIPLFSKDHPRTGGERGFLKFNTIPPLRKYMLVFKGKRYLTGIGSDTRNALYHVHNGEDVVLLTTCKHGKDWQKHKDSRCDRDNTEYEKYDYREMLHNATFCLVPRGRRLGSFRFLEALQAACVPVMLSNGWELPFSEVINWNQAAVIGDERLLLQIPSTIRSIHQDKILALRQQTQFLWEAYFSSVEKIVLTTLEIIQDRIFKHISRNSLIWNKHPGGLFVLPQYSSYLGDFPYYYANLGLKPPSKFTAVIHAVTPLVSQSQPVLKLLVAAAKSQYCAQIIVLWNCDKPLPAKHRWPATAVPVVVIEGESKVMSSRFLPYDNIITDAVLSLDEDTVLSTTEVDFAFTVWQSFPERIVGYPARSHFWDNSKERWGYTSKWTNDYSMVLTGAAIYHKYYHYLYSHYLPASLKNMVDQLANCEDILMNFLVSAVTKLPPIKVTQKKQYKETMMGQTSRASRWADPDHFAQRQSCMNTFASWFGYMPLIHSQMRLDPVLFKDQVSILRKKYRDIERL
T3 sequence (Q93063 47-718 limits assumed): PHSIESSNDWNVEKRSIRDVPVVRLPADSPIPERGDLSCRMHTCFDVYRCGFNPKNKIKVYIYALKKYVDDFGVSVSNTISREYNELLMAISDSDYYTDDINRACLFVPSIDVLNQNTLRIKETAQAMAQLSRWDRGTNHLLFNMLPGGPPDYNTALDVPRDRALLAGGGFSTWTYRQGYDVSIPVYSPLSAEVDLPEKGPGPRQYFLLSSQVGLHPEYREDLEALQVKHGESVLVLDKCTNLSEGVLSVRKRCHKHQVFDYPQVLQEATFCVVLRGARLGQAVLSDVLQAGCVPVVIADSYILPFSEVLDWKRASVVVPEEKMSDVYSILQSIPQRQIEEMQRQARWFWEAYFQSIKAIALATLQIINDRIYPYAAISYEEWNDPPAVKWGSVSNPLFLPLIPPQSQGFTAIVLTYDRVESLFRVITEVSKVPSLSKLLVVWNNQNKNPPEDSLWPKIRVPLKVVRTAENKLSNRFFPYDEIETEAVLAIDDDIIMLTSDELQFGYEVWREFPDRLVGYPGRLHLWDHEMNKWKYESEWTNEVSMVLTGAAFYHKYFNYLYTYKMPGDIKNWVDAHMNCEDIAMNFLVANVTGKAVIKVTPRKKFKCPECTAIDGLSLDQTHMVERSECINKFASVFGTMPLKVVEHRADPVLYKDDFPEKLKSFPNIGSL
The assay is described as follows: HPLC and MS of glycopeptide product. The following applies: acceptor GlcNAc-TetraP-BETA; Mn2+; pH 7.5.

The target of assay [4] is T4, B3GAT3 (Homo sapiens, UniProt O94766).
T4 sequence (O94766 29-335 limits assumed): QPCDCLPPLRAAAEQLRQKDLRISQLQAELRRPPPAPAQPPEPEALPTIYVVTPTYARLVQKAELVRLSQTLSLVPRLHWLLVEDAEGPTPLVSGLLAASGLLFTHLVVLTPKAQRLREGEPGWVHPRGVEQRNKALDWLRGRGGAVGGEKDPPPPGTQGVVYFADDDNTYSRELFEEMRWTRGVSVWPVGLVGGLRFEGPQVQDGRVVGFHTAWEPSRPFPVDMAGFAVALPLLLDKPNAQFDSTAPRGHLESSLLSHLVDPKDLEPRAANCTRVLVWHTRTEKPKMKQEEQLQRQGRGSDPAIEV
Put plainly: one-pot enzymatic synthesis, HPLC and MS. The following applies: acceptor Gal-Gal-Xyl-BKN; 25 mM Mn2+; pH 7.5; 30 °C.

Molecules are shown by their SMILES.

In the case of `CC(=O)N[C@H]1[C@@H](OP(=O)(O)OP(=O)(O)OC[C@H]2O[C@@H](n3ccc(=O)[nH]c3=O)[C@H](O)[C@@H]2O)O[C@H](CO)[C@H](O)[C@@H]1O` [UDP-GalNAc], in assay [1], the “HPLC and MS of glycopeptide product” value is on record as “CHSY3/CHPF was able to transfer GalNAc onto TetraP-BETA”. The UDP-Glo entry in assay [2] is on record as “A similar behaviour was confirmed for CSGALNACT1”.
In the case of `O=C(O)[C@H]1O[C@H](OP(=O)(O)OP(=O)(O)OC[C@H]2O[C@@H](n3ccc(=O)[nH]c3=O)[C@H](O)[C@@H]2O)[C@H](O)[C@@H](O)[C@@H]1O` [UDP-GlcA], the “HPLC and MS of glycopeptide product” value in assay [3] is given as “both enzymes are able to catalyse the addition of a sixth sugar, forming GlcA-GlcNAc-TetraP-BETA”. In addition, the “one-pot enzymatic synthesis, HPLC and MS” value in assay [4] was “all four GTs but without FAM20B gave the unphosphorylated linker glycopeptide, GlcA-Gal-Gal-Xyl-BKN (Tetra-BKN)”.

These data come from paper PMC10570366, “Molecular mechanism of decision-making in glycosaminoglycan biosynthesis” (Nature Communications, 2023).
